{"source": "patent US20220064604A1", "about": "“SYSTEMIC SCLEROSIS DISEASE MODEL AND USE THEREOF” (YiPSCELL Inc., priority 2018, published 2022)", "key": {"total collagen in iPSC-F": {"tested_on": "total collagen in iPSC-F", "experiment": "Total collagen expression, hydroxyproline assay, in iPSC-derived fibroblasts", "format": "cell-based, human", "settings": "for expression of the total collagen: 5 μM, SSc patient iPSC-derived fibroblasts, vs untreated", "description": "(§1) The cells or cell culture media were harvested, mixed with hydrochloric acid at a ratio of 1:1, and cultured at 120° C. for 3 hours. After culture, 5 mg of activated charcoal was added, followed by centrifugation at 13,000×g for 5 minutes to separate only the supernatant. The harvested supernatant was transferred to a 96-well plate and dried completely at 60° C. The Chloramine T/Oxidation Buffer mixture was added to the well, and it was cultured for 5 minutes at room temperature. After adding the diluted DMAB Reagent and incubating at 60° C. for 90 minutes, absorbance at 560 nm was measured.\nas §1, with “For collagen expression, the hydroxyproline assay kit (Sigma) was used. The cells” for “The cells”, “1:1, and incubated at 120°” for “1:1, and cultured at 120°”, “hours. After incubation, 5 mg” for “hours. After culture, 5 mg”, “it was incubated for 5” for “it was cultured for 5”\nFor collagen expression, the hydroxyproline assay kit (Sigma) was used. The cells or cell culture media were harvested, mixed with hydrochloric acid at a ratio of 1:1, and incubated at 120° C. for 3 hours. After incubation, 5 mg of activated charcoal was added, followed by centrifugation at 13,000×g for 5 minutes to separate only the supernatant. […] After adding the diluted DMAB Reagent and incubating at 60° C. for 90 minutes, absorbance at 560 nm was measured.\nAfter 1 day, pirfenidone and nintedanib, which are drugs approved as anti-fibrotic drugs, were treated at a concentration of 5 μM. Collagen expression was measured using the hydroxyproline assay kit (Sigma). […] After adding the diluted DMAB Reagent and incubating at 60° C. for 90 minutes, absorbance was measured at 560 nm to measure the total amount of collagen."}, "ACTA2 and COL1A1": {"tested_on": "ACTA2 and COL1A1", "experiment": "Fibrosis marker gene expression (qRT-PCR) in SSc iPSC-derived fibroblasts", "format": "cell-based, human", "settings": "5 μM; SSc patient iPSC-derived fibroblasts; vs untreated", "description": "In order to verify the fibrosis model of the fibroblasts derived from the induced pluripotent stem cells of patients with systemic sclerosis formed in Example 3 above, 2.5×10^5 fibroblasts were plated on a 6-well plate, and maintained and expanded for 1 day. One day later, pirfenidone and nintedanib were treated at a concentration of 5 μM. The total RNA was extracted using Trizol, and cDNA was synthesized using the Revert Aid™ First Strand cDNA Synthesis kit. The qRT-PCR was performed on the synthesized cDNA using LightCycle 480 SYBR Green. The primers used are presented in [Table 3]. All of the experiments were repeated 3 times, and the threshold of the average cycle was used to calculate gene expression for averaging GAPDH as an internal control."}, "[1]": {"tested_on": "fibroblasts derived from the induced pluripotent stem cells", "experiment": "Cell proliferation of iPSC-derived fibroblasts, Cell Counting Kit-8 (FDA-approved drug screening)", "format": "cell-based, human", "settings": "absorbance at 450 nm", "description": "For cell proliferation, absorbance was measured at 450 nm by using the Cell Counting Kit-8 (Dojindo).\nThe plated cells were treated with about 800 FDA-approved drugs to screen for drugs that reduce the proliferation (FIG. 6A). For cell proliferation, absorbance was measured at 450 nm by using the Cell Counting Kit-8 (Dojindo) (FIG. 6B)."}, "α-SMA": {"tested_on": "α-SMA", "experiment": "α-SMA expression by western blot in iPSC-derived fibroblasts", "format": "cell-based, human", "description": "In order to verify the antifibrotic effect of dactinomycin and raloxifene, which are the drugs selected through the above experiment, 1×10^6 fibroblasts were plated on a 100 mm culture dish, treated with the target drugs, and maintained and expanded. The protein was extracted using the RIPA buffer (Sigma) to analyze the expression of fibrosis factors, and the protein concentration was quantified by the Bradford assay. The same concentration of the protein was loaded on 10% SDS-PAGE, and the protein was transferred to polyvinylidene difluoride membranes. […] After washing with PBS containing 0.1% Tween-20, the peroxidase-linked IgG secondary antibody was incubated, and protein expression was measured using the ECL kit.\nIn order to confirm the reduction effect of the expression of the fibrosis factors of raloxifene, which is the drug selected in Example 6, raloxifene was treated by concentration, and the expression of α-SMA was confirmed. […] The protein was extracted using the RIPA buffer (Sigma) to analyze the expression of fibrosis factors, and the protein concentration was quantified by the Bradford assay. […] After washing with PBS containing 0.1% Tween-20, the peroxidase-linked IgG secondary antibody was incubated, and protein expression was measured using the ECL kit."}, "iPSC-F": {"tested_on": "iPSC-F", "experiment": "Wound healing assay in iPSC-F with TGF-b induced fibrosis", "format": "cell-based, human", "description": "The fibroblasts were plated on a 6-well plate and maintained and expanded. When the cells filled the plate, the plate was scratched, and fibrosis was induced by TGF-b and it was treated with the drug raloxifene."}, "3D fibroblast layer": {"tested_on": "3D fibroblast layer", "experiment": "Thickness of 3D fibroblast layer with TGF-b induced fibrosis", "format": "cell-based, human", "excerpt": "A 3D fibroblast layer was produced using the fibroblasts formed in Example 3 above. 2×10^5 fibroblasts after 28 days of differentiation were harvested and mixed with collagen 1 and plated on a 6-well-sized Transwell plate. It was replaced once every 2 days with Fibroblast Differentiation Culture Medium 1 for 5 days (FIG. 5F).\nIn order to confirm the effect of reducing the skin thickness by raloxifene, which is the drug selected in Example 6 above, fibrosis was induced in the 3D fibroblast layer with TGF-b, and it was treated with the drug raloxifene."}, "[2]": {"tested_on": "COL1A1, COL3A1, and ACTA2", "experiment": "Fibrosis factor gene expression (qRT-PCR) in skin tissue of bleomycin model", "format": "in vivo, mouse", "settings": "subcutaneous for 21 days", "description": "(§2) A systemic sclerosis model was established by dissolving Bleocin (Dong-A ST, 15 mg) in PBS and injecting it daily into the nape of mice. Raloxifene and bazedoxifene were injected subcutaneously for 21 days from 3 days after the injection of Bleocin (FIG. 8A).\nECM gene expression was confirmed to verify the antifibrotic efficacy of raloxifene in the bleomycin model established in Example 8-1 above. After harvesting the skin tissue, the total RNA was extracted using Trizol, and cDNA was synthesized using the Revert Aid™ First Strand cDNA Synthesis kit. The qRT-PCR was performed on the synthesized cDNA using LightCycle 480 SYBR Green. The primers used are presented in [Table 4]. All of the experiments were repeated three times, and the threshold of the average cycle was used to calculate gene expression for averaging GAPDH as an internal control."}, "bleomycin mouse model [3]": {"tested_on": "bleomycin mouse model", "experiment": "Thickness of skin tissue in bleomycin model (histology)", "format": "in vivo", "description": "as §2\nIn order to verify the antifibrotic efficacy of raloxifene in the bleomycin model established in Example 8-1 above, the skin tissue was harvested and paraffin blocks were prepared. The harvested skin tissue was fixed in 4% formaldehyde. The tissue was maintained in the running water for a day to remove the remaining fixative. Dehydration was carried out sequentially while increasing the concentration of an ethanol solution. After dehydration, a transparent process was performed with xylene, followed by paraffin penetration. The next day, the tissue was fixed to a paraffin block, and a tissue section was obtained using a microtome. The slide was dried at 60° C. for 1 hour. After the slide was deparaffinized with xylene, it was rehydrated while decreasing the concentration of the ethanol solution and washed with tap water, and staining was performed.\nFor hematoxylin and eosin (H&E) staining, sections were incubated in the Harris hematoxylin solution for 10 minutes. The slide was washed, decolorized in an ethanol solution containing 1% HCl, and then neutralized in 0.2% ammonia water. […]"}, "bleomycin mouse model [4]": {"tested_on": "bleomycin mouse model", "experiment": "Pulmonary fibrosis in bleomycin model (Masson Trichrome staining)", "format": "in vivo", "experimental": "A systemic sclerosis model was established by dissolving Bleocin (Dong-A ST, 15 mg) in PBS and injecting it daily into the nape of mice. Raloxifene and bazedoxifene were injected subcutaneously for 21 days from 3 days after the injection of Bleocin (FIG. 8A). […] For Masson Trichrome staining, the slide was mordated overnight in the Bouin solution. After washing the slide, nuclei were stained for 10 minutes with Weigert Iron Hematoxylin. The cytoplasm was stained for 5 minutes with Biebrich scarlet-acid fuchsin. It was decolorized for 10 minutes with a solution in which phosphotungstic acid, phosphomolybdic acid, and DW were mixed at a ratio of 1:1:2. The collagenic fiber was stained by maintaining in a 2% aniline blue solution for 5 minutes. The slide was washed and subjected to a dehydration process while increasing the concentration of ethanol. The remaining ethanol was removed with xylene, and it was sealed using the VectaMount Permanent Mounting Medium."}, "[5]": {"settings": "raloxifene treated by concentration"}}, "note": "Starred links: 1 amine or outer side, 2 acyl side, 3 side chain; linkers in the order of their positions; H or OH if unused. Positions of bridges follow the written chain, without caps; N, C: chain ends. Non-standard residues stand in square brackets, D forms with d. Residues, ends and D or L forms follow the SMILES beside them. Chains are numbered I, II in the order given. Actinocin(9to1) = Cc1c2oc3c(C)ccc(C(=O)[*:1])c3nc-2c(C(=O)[*:2])c(N)c1=O; NMeV = CN[C@H](C(=O)O)C(C)C; Sar = CNCC(=O)O", "data": [{"smiles": "Cc1ccc(=O)n(-c2ccccc2)c1", "note": "[pirfenidone]", "values": [{"measurement": "expression of the total collagen", "setting": "total collagen in iPSC-F", "value": "significantly reduced"}, {"measurement": "gene expression of ACTA2", "setting": "ACTA2 and COL1A1", "value": "significantly reduced"}, {"measurement": "gene expression of COL1A1", "setting": "ACTA2 and COL1A1", "value": "significantly reduced"}]}, {"smiles": "Cc1c2oc3c(C)ccc(C(=O)N[C@@H]4C(=O)N[C@H](C(C)C)C(=O)N5CCC[C@H]5C(=O)N(C)CC(=O)N(C)[C@@H](C(C)C)C(=O)O[C@@H]4C)c3nc-2c(C(=O)N[C@@H]2C(=O)N[C@H](C(C)C)C(=O)N3CCC[C@H]3C(=O)N(C)CC(=O)N(C)[C@@H](C(C)C)C(=O)O[C@@H]2C)c(N)c1=O", "note": "[dactinomycin] (I: T[dV]P[Sar][NMeV] / II: T[dV]P[Sar][NMeV]; ester I:1-I:C, II:1-II:C; linker I:N-II:N via Actinocin(9to1))", "values": [{"measurement": "cell proliferation", "setting": "[1]", "value": "decreased"}]}, {"smiles": "COC(=O)c1ccc2c(c1)NC(=O)/C2=C(\\Nc1ccc(N(C)C(=O)CN2CCN(C)CC2)cc1)c1ccccc1", "note": "[nintedanib]", "values": [{"measurement": "expression of the total collagen", "setting": "total collagen in iPSC-F", "value": "significantly reduced"}, {"measurement": "gene expression of ACTA2", "setting": "ACTA2 and COL1A1", "value": "significantly reduced"}, {"measurement": "gene expression of COL1A1", "setting": "ACTA2 and COL1A1", "value": "significantly reduced"}]}, {"smiles": "O=C(c1ccc(OCCN2CCCCC2)cc1)c1c(-c2ccc(O)cc2)sc2cc(O)ccc12", "note": "[raloxifene]", "values": [{"measurement": "cell proliferation", "setting": "[1]", "value": "decreased"}, {"measurement": "expression of the total collagen, treated by concentration", "setting": "total collagen in iPSC-F; [5]", "value": "reduced as the treatment concentration of raloxifene was increased"}, {"measurement": "expression of α-SMA", "setting": "α-SMA; iPSC-F of patients with systemic sclerosis", "value": "effectively decreased the expression of α-SMA compared to dactinomycin"}, {"measurement": "expression of α-SMA, treated by concentration", "setting": "α-SMA; [5]", "value": "reduced as the treatment concentration of raloxifene was increased"}, {"measurement": "wound healing, which was increased by TGF-b", "setting": "iPSC-F; wound healing assay in iPSC-F", "value": "reduced"}, {"measurement": "proliferation of the cells, which was increased by TGF-b", "setting": "iPSC-F; wound healing experiment, TGF-b induced", "value": "reduced"}, {"measurement": "thickness of the 3D fibroblast layer, which was increased by TGF-b", "setting": "3D fibroblast layer", "value": "reduced"}, {"measurement": "expression of ACTA2", "setting": "[2]", "value": "reduced"}, {"measurement": "expression of COL1A1", "setting": "[2]", "value": "reduced"}, {"measurement": "expression of COL3A1", "setting": "[2]", "value": "reduced"}, {"measurement": "thickness of the skin tissue", "setting": "bleomycin mouse model [3]", "value": "reduced"}, {"measurement": "lung fibrosis", "setting": "bleomycin mouse model [4]", "value": "reduced"}]}]}
